Laboratory results from patent US8865623B2, “Herbicidally active cyclic diones and derivatives thereof, processes for their preparation, compositions, and method of controlling weeds” (Syngenta Limited, priority 2009, dated 2014).

Experiments:
Assay type in all cases: in vivo
[1] = tested on: Avena fatua (AVEFA); assay: Pre-emergence herbicidal activity, glasshouse pot test; details: Avena fatua, 312 h; Rate 250 g/ha; pre-emergence spray; evaluated after 13 days; read-out: Pre-emergence activity AVEFA (100=total damage to plant; 0=no damage to plant)
Method in brief: (§1)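 Pot-grown plants in standard soil received a spray one day post-sowing (pre-emergence) or after eight days' growth (post-emergence). Scoring took place 13 days later on a 0–100 scale, 100 meaning total damage.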

[2] = tested on: Lolium perenne (LOLPE); assay: as above; details: Lolium perenne, 312 h; Rate 250 g/ha; pre-emergence spray; evaluated after 13 days; read-out: Pre-emergence activity LOLPE (100=total damage to plant; 0=no damage to plant)
Method in brief: as §1

[3] = tested on: Alopecurus myosuroides (ALOMY); assay: as above; details: Alopecurus myosuroides, 312 h; Rate 250 g/ha; pre-emergence spray; evaluated after 13 days; read-out: Pre-emergence activity ALOMY (100=total damage to plant; 0=no damage to plant)
Method in brief: as §1

[4] = tested on: Echinochloa crus-galli (ECHCG); assay: as above; details: Echinochloa crus-galli, 312 h; Rate 250 g/ha; pre-emergence spray; evaluated after 13 days; read-out: Pre-emergence activity ECHCG (100=total damage to plant; 0=no damage to plant)
Method in brief: as §1

[5] = tested on: Avena fatua (AVEFA); assay: Post-emergence herbicidal activity, glasshouse pot test; details: Avena fatua, 312 h, rate 250 g/ha, evaluated after 13 days, glasshouse, read-out: Post-emergence activity AVEFA (100=total damage to plant; 0=no damage to plant)
Method in brief: as §1

[6] = tested on: Lolium perenne (LOLPE); assay: as above; details: Lolium perenne, 312 h, rate 250 g/ha, evaluated after 13 days, glasshouse, read-out: Post-emergence activity LOLPE (100=total damage to plant; 0=no damage to plant)
Method in brief: as §1

[7] = tested on: Alopecurus myosuroides (ALOMY); assay: as above; details: Alopecurus myosuroides, 312 h, rate 250 g/ha, evaluated after 13 days, glasshouse, read-out: Post-emergence activity ALOMY (100=total damage to plant; 0=no damage to plant)
Method in brief: as §1

[8] = tested on: Echinochloa crus-galli (ECHCG); assay: as above; details: Echinochloa crus-galli, 312 h, rate 250 g/ha, evaluated after 13 days, glasshouse, read-out: Post-emergence activity ECHCG (100=total damage to plant; 0=no damage to plant)
Method in brief: as §1

Row | Compound | pest or weed control at 250 g/ha [1] | pest or weed control at 250 g/ha [2] | pest or weed control at 250 g/ha [3] | pest or weed control at 250 g/ha [4] | pest or weed control at 250 g/ha [5] | pest or weed control at 250 g/ha [6] | pest or weed control at 250 g/ha [7] | pest or weed control at 250 g/ha [8]
1 | CCc1ccc(Oc2ccc(C#N)cn2)cc1C1=C(O)C(C)(C)OC(C)(C)C1=O [Example A-150] | 10% | 70% | 10% | 80% | 70% | 40% | 60% | 100%
2 | CCc1ccc(Oc2ccc(C#N)c(Cl)c2)cc1C1=C(O)[C@H]2CC[C@H](C2)C1=O [Example A-330] | 80% | 100% | 80% | 100% | 80% | 70% | 70% | 100%
3 | CCc1ccc(Oc2ccc(F)cc2Cl)cc1C1=C(O)CC(C)(C)CC1=O [Example A-70] | 10% | 50% | 60% | 100% | 10% | 10% | 30% | 70%
4 | CCc1ccc(Oc2ccc(C(F)(F)F)cc2Cl)cc1C1=C(O)CC2(CCOCC2)CC1=O [Example A-271] | 50% | 90% | 90% | 100% | 90% | 70% | 90% | 100%
5 | CCc1ccc(Oc2ncc(Cl)cc2C(F)(F)F)cc1C1=C(O)CC2(CCOCC2)CC1=O [Example A-268] | 80% | 100% | 90% | 100% | 90% | 70% | 90% | 100%
6 | CCc1ccc(Oc2ccnc(Cl)c2)cc1C1=C(O)C(C)(C)OC(C)(C)C1=O [Example A-72] | 30% | 70% | 60% | 90% | 50% | 40% | 60% | 90%
7 | CCc1ccc(Oc2cc(C(F)(F)F)ccn2)cc1C1=C(O)C(C)(C)OC(C)(C)C1=O [Example A-153] | 20% | 60% | 50% | 100% | 80% | 30% | 70% | 90%
8 | CCc1ccc(Oc2ncc(Br)cn2)cc1C1=C(O)CC(C)(C)CC1=O [Example A-297] | 50% | 100% | 70% | 100% | 100% | 100% | 100% | 100%
9 | CCc1ccc(Oc2ccc(Cl)cc2)cc1C1=C(O)[C@H]2CC[C@H](C2)C1=O (single isomer, unassigned) [Example A-88] | 60% | 100% | 80% | 100% | 70% | 50% | 70% | 90%
10 | CCc1ccc(Oc2ccc3cc(Cl)ccc3n2)cc1C1=C(O)CC(C)(C)CC1=O [Example A-261] | 50% | 80% | 80% | 90% | 100% | 100% | 90% | 100%
